In series [1] the test system is PyMT tumors. In words: Tumor homing of intravenously injected fluorescent CREKA peptide in MMTV-PyMT mice. It counts as in vivo. As to conditions: intravenous injection; minutes to hours after the injection; fluorescent dye at N-terminus. The method, then:
(§1) (A). Balb/c nude mice bearing MDA-MB-435 human breast cancer xenograft tumors or transgenic MMTV PyMT mice with breast tumors were intravenously injected with 0.1 mg of fluorescein-CREKA. The animals were sacrificed by perfusion 24 hours post-injection and tissue sections were examined by fluorescent microscopy. Right panel, control organs of MDA-MB 435 tumor mice. Magnification 200×. (B). Whole animal imaging of MDA-MB-435 tumor mouse injected 6 hours earlier with 30 μg of Alexa Fluor 647-labeled CREKA. Maestro imaging system (Cambridge Research Inc., Woburn, Mass.) was used to acquire and process the image. The arrow points to the tumor and the arrowhead to the urinary bladder.
A tumor-homing peptide was used to construct targeted nanoparticles. […] The most frequently represented peptide sequence in the selected phage preparation was CREKA (cys-arg-glu-lys-ala; SEQ ID NO:1). The CREKA peptide was synthesized with a fluorescent dye attached to the N-terminus and the in vivo distribution of the peptide was studied in tumor-bearing mice. […] The peptide formed a distinct meshwork in the tumor stroma (FIG. 5), and it also highlighted the blood vessels in the tumors. […]

Series [2] relates to MDA-MB-435 human breast cancer xenografts. The series can be described thus: Tumor homing of intravenously injected fluorescent CREKA peptide in MDA-MB-435 xenograft mice. The format is in vivo. The protocol: as §1
A tumor-homing peptide was used to construct targeted nanoparticles. […] The most frequently represented peptide sequence in the selected phage preparation was CREKA (cys-arg-glu-lys-ala; SEQ ID NO:1). The CREKA peptide was synthesized with a fluorescent dye attached to the N-terminus and the in vivo distribution of the peptide was studied in tumor-bearing mice. […] The peptide formed a distinct meshwork in the tumor stroma (FIG. 5), and it also highlighted the blood vessels in the tumors.
In vivo screening of a peptide library with the general structure of CX7C (SEQ ID NO: 4), where C is cysteine and X is any amino acid, was carried out as described (Oh 2004) using 65- to 75-day-old transgenic MMTV PyMT mice (Hutchinson 2000). These mice express the polyoma virus middle T antigen (MT) under the transcriptional control of the mouse mammary tumor virus (MMTV), leading to the induction of multi-focal mammary tumors in 100% of carriers. MDA-MB-435 tumors in nude mice and peptide synthesis have been described (Laakkonen 2002; Laakkonen 2004). B16F1 murine melanoma tumors were grown in fibrinogen null mice (Suh 1995) and their normal littermates and used when they reached 0.5-1 cm in size (Pilch 2006).

For series [3], the system named is mouse plasma clots. In words: Nanoparticle binding to mouse plasma clots in vitro. The method, then: (§2) Phage binding to clotted plasma proteins was determined as described (Pilch 2006). CREKA-SPIO and control SPIO were added to freshly formed plasma clots in the presence or absence of free CREKA peptide. After 10 min incubation, the clots were washed 4 times in PBS, transferred to a new tube and digested in 100 μl concentrated nitric acid. The digested material was diluted in 2 ml distilled water and the iron concentration was determined using inductively coupled plasma-optical emission spectroscopy (ICP-OES, PerkinElmer, Norwalk, Conn.).

The subject of series [4] is B16F1 melanomas. The series can be described thus: CREKA peptide homing to B16F1 melanomas in fibrinogen null mice and normal littermates. The format is in vivo. As to conditions: intravenous injection. The method, then: Fluorescein-conjugated CREKA peptide (200 μg per mouse) was injected into mice bearing syngeneic B16 melanoma tumors. Representative microscopic fields are shown to illustrate homing of fluorescein-CREKA to fibrin-like structures in tumors in wild type mice (A, arrow) and lack of homing in fibrinogen null mice (B). […] (D) Dextran-coated iron oxide nanoparticles conjugated with fluorescein-CREKA bind to clotted plasma proteins, and the binding is inhibited by free CREKA peptide. […] Magnification: A-B, 200×; D, 600×.
Tumors contain a meshwork of clotted plasma proteins in the tumor stroma and the walls of vessels, but no such meshwork is detectable in normal tissues (Dvorak 1985; Abe 1999; Pilch 2006). The mesh-like pattern produced by the CREKA peptide in tumors prompted the study of whether clotted plasma proteins can be the target of this peptide. The peptide was tested in fibrinogen knockout mice, which lack the fibrin meshwork in their tumors. […] Its structure makes it an attractive peptide to use in nanoparticle targeting because, unlike other clot-binding peptides, which are cyclic 10 amino-acid peptides (Pilch 2006), CREKA is linear and contains only 5 amino acids. Moreover, the sulfhydryl group of the single cysteine residue is not required to provide binding activity and can be used to couple the peptide to other moieties. […]

Series [5] concerns human plasma clots. The series can be described thus: Nanoparticle binding to human plasma clots in vitro. The method, then:
as §2

Where no end group is shown, it is not given here. fluorescent dye = not defined here

Take “cys-arg-glu-lys-ala ({fluorescent dye}-CREKA; reading uncertain; also: dye not identified, printed as cys-arg-glu-lys-ala) [CREKA peptide, studied in vivo with a fluorescent dye attached to the N-terminus]”: the “peptide detection in tumors” value in series [1] was “readily detectable”; in series [2] (intravenous injection, minutes to hours after the injection, fluorescent dye at N-terminus) it was “readily detectable”. In addition, in series [2] (intravenous injection, tumor-bearing mice), the “peptide detection in normal tissues” value was “essentially undetectable”. In addition, in series [2] (peptide labeled with Alexa 647, 6 hours after injection of 30 μg), the “whole body imaging, peptide accumulation” value is “peptide accumulation in the breast cancer xenografts, and in the bladder”. For the same substance, the “effect of free peptide on CREKA-SPIO binding to plasma clots” value in series [3] and in series [5] was “inhibited” each time. For the same substance, the “peptide accumulation in tumors” value is reported as “failed to accumulate” in series [4] (fibrinogen null mice) and “formed a brightly fluorescent meshwork” in series [4] (normal littermates of the null mice).
